Assays:
barnyardgrass [1] = experiment: Test B flooded paddy test; type: in vivo, Echinochloa crus-galli; conditions: Flood, 250 g ai/ha; 0 to 100 scale where 0 is no effect and 100 is complete control
In short: (§1)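 Evaluation is visual, against untreated controls, 13 to 15 days after treatment. Before treatment, plants reached the 2-leaf stage; pots were then flooded 3 cm deep, compound was added to the water, and that level was maintained. Ratings run 0 to 100, with 100 meaning complete control.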

large (Lg) crabgrass [2] = experiment: Test A postemergence; type: in vivo, Digitaria sanguinalis
In short: (§2)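 Visual injury scored 0–100 (100 = complete control) against untreated controls about 10 days after treatment in a greenhouse. Test chemicals, formulated with surfactant in non-phytotoxic solvent, were sprayed on soil preemergence or on 2-10 cm, one- to two-leaf plants postemergence.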

wheat [3] = experiment: Test A preemergence; type: in vivo, Triticum aestivum
In short: as §2

sedge, umbrella = experiment: Test B flooded paddy test; type: in vivo, Cyperus difformis; conditions: Flood, 250 g ai/ha; 0 to 100 scale where 0 is no effect and 100 is complete control
In short: as §1

wheat [4] = experiment: Test A postemergence; type: in vivo, Triticum aestivum
In short: as §2

velvetleaf [5] = experiment: Test A preemergence; type: in vivo, Abutilon theophrasti
In short: as §2

morningglory [6] = experiment: Test A postemergence; type: in vivo, Ipomoea spp.
In short: as §2

giant foxtail [7] = experiment: Test A postemergence; type: in vivo, Setaria faberii
In short: as §2

pigweed [8] = experiment: Test A preemergence; type: in vivo, Amaranthus retroflexus; conditions: for Pigweed plant response rating: 0 to 100 scale, 0 no effect, 100 complete control, approx. 10 days
In short: as §2

large (Lg) crabgrass [9] = experiment: Test A preemergence; type: in vivo, Digitaria sanguinalis
In short: as §2

pigweed [10] = experiment: Test A postemergence; type: in vivo, Amaranthus retroflexus
In short: as §2

barnyardgrass [11] = experiment: Test A postemergence; type: in vivo, Echinochloa crus-galli
In short: as §2

morningglory [12] = experiment: Test A preemergence; type: in vivo, Ipomoea spp.; conditions: for Morningglory plant response rating: 0 to 100 scale, 0 no effect, 100 complete control, approx. 10 days
In short: as §2

giant foxtail [13] = experiment: Test A preemergence; type: in vivo, Setaria faberii; conditions: for Foxtail, Giant plant response rating: 0 to 100 scale, 0 no effect, 100 complete control, approx. 10 days
In short: as §2

corn [14] = experiment: Test A preemergence; type: in vivo, Zea mays
In short: as §2

barnyardgrass [15] = experiment: Test A preemergence; type: in vivo, Echinochloa crus-galli
In short: as §2

rice = experiment: Test B flooded paddy test; type: in vivo, Oryza sativa; conditions: Flood, 250 g ai/ha; 0 to 100 scale where 0 is no effect and 100 is complete control
In short: as §1

corn [16] = experiment: Test A postemergence; type: in vivo, Zea mays
In short: as §2

velvetleaf [17] = experiment: Test A postemergence; type: in vivo, Abutilon theophrasti
In short: as §2

Heteranthera limosa = experiment: Test B flooded paddy test; type: in vivo; conditions: Flood, 250 g ai/ha; 0 to 100 scale where 0 is no effect and 100 is complete control
In short: as §1

[18] = 125 g ai/ha, 0 to 100 scale where 0 is no effect and 100 is complete control
[19] = 500 g ai/ha, 0 to 100 scale where 0 is no effect and 100 is complete control
[20] = 500 g ai/ha, 0 to 100 scale, 0 no effect, 100 complete control, approx. 10 days
[21] = 1000 g ai/ha, 0 to 100 scale, 0 no effect, 100 complete control
[22] = 1000 g ai/ha, 0 to 100 scale, 0 no effect, 100 complete control, approx. 10 days

CC(=O)c1cccc(Oc2ncc(Cl)cn2)c1-n1cc(Br)cn1 [Compound 96]
Plant response rating, Barnyardgrass (barnyardgrass [1]): 0 | Plant response rating, Crabgrass, Large (large (Lg) crabgrass [2]; [18]): 10 | Plant response rating, Crabgrass, Large (large (Lg) crabgrass [2]; [19]): 30 | Plant response rating, Wheat (wheat [3]; [18]): 0 | Plant response rating, Sedge, Umbrella (sedge, umbrella): 0 | Plant response rating, Wheat (wheat [4]; [18]): 0 | Plant response rating, Wheat (wheat [4]; [19]): 0 | Plant response rating, Velvetleaf (velvetleaf [5]; [18]): 0 | Plant response rating, Morningglory (morningglory [6]; [18]): 0 | Plant response rating, Morningglory (morningglory [6]; [19]): 10 | Plant response rating, Foxtail, Giant (giant foxtail [7]; [18]): 0 | Plant response rating, Foxtail, Giant (giant foxtail [7]; [19]): 20 | Plant response rating, Pigweed (pigweed [8]; [18]): 50 | Pigweed plant response rating (pigweed [8]; 500 g ai/ha): 100 | Plant response rating, Crabgrass, Large (large (Lg) crabgrass [9]; [18]): 30 | Crabgrass, Large plant response rating (large (Lg) crabgrass [9]; [20]): 90 | Plant response rating, Pigweed (pigweed [10]; [18]): 10 | Plant response rating, Pigweed (pigweed [10]; [19]): 40 | Plant response rating, Barnyardgrass (barnyardgrass [11]; [18]): 10 | Plant response rating, Barnyardgrass (barnyardgrass [11]; [19]): 30 | Plant response rating, Morningglory (morningglory [12]; [18]): 0 | Morningglory plant response rating (morningglory [12]; 500 g ai/ha): 0 | Plant response rating, Foxtail, Giant (giant foxtail [13]; [18]): 10 | Foxtail, Giant plant response rating (giant foxtail [13]; 500 g ai/ha): 60 | Plant response rating, Corn (corn [14]; [18]): 0 | Corn plant response rating (corn [14]; [20]): 0 | Plant response rating, Barnyardgrass (barnyardgrass [15]; [18]): 0 | Barnyardgrass plant response rating (barnyardgrass [15]; [20]): 30 | Plant response rating, Rice (rice): 0 | Plant response rating, Corn (corn [16]; [18]): 0 | Plant response rating, Corn (corn [16]; [19]): 10 | Plant response rating, Velvetleaf (velvetleaf [17]; [18]): 0 | Plant response rating, Velvetleaf (velvetleaf [17]; [19]): 10 | Plant response rating, Ducksalad (Heteranthera limosa): 0

Fc1ccc(Oc2ncc(Cl)cn2)c(-n2cc(Br)cn2)c1 [Compound 53]
Plant response rating, Barnyardgrass (barnyardgrass [1]): 0 | Plant response rating, Crabgrass, Large (large (Lg) crabgrass [2]; [21]): 70 | Wheat plant response rating (wheat [3]; [22]): 0 | Plant response rating, Sedge, Umbrella (sedge, umbrella): 0 | Plant response rating, Wheat (wheat [4]; [21]): 30 | Velvetleaf plant response rating (velvetleaf [5]; [22]): 100 | Plant response rating, Morningglory (morningglory [6]; [21]): 100 | Plant response rating, Foxtail, Giant (giant foxtail [7]; [21]): 80 | Pigweed plant response rating (pigweed [8]; 1000 g ai/ha): 100 | Plant response rating, Crabgrass, Large (large (Lg) crabgrass [9]; [21]): 100 | Plant response rating, Pigweed (pigweed [10]; [21]): 100 | Plant response rating, Barnyardgrass (barnyardgrass [11]; [21]): 90 | Morningglory plant response rating (morningglory [12]; 1000 g ai/ha): 60 | Foxtail, Giant plant response rating (giant foxtail [13]; 1000 g ai/ha): 100 | Plant response rating, Corn (corn [14]; [21]): 10 | Plant response rating, Barnyardgrass (barnyardgrass [15]; [21]): 100 | Plant response rating, Rice (rice): 0 | Plant response rating, Corn (corn [16]; [21]): 30 | Plant response rating, Velvetleaf (velvetleaf [17]; [21]): 100 | Plant response rating, Ducksalad (Heteranthera limosa): 75
